Columns and labels:
[1] = tested on: U-937 human histocytic lymphoma; assay: In vitro inhibition rate to tumor cells (MTT), U-937; type: cell-based; conditions: 50 μg/ml
Protocol: (§1) (1) Single cell suspension was seeded into 96-well plates (×3) (the cells was diluted in the PRMI-1640 minimum medium to 3×10^4 cells/ml, […] diluted cells/well). […] The experiments were performed in quadruplicate.
(§2) (2) The medium was removed. Solutions of the anti-tumor agents (15 compounds) were prepared in a freshly prepared medium at the concentrations indicated in the following Table. […] of the solution was added into each well. Incubation was continued for 48 hours.
(§3) (3) […] of 2 mg/ml MTT was added into each well, and incubated for 4 hours.
(§4) (4) The medium was removed from the well. The microplates were swiftly turned down to throw-off the medium. […] DMSO was added into each well, and vortexed at room temperature for 10 minutes.
(§5) (5) OD value (λ=570 nm) was measured with an Enzyme-Linked Detector.
(§6) (6) The inhibition rates (IR) of cell growth were respectively calculated based on the following equation: IR(%)=[1−(average OD of the experimental group/average OD of the control group)]×100%

293 cells = assay: Cell status of 293 cells treated with sample alone (herpes virus screening); conditions: 200 μg/ml, 24 hrs
[2] = tested on: Bel-7402 human hepatic carcinoma; assay: In vitro inhibition rate to tumor cells (MTT), Bel-7402; type: cell-based; conditions: 50 μg/ml
Protocol: as §1, §2, §3, §4, §5, §6

[3] = tested on: MCF-7 human mammary adenocarcinoma; assay: In vitro inhibition rate to tumor cells (MTT), MCF-7; type: cell-based; conditions: 50 μg/ml
Protocol: as §1, §2, §3, §4, §5, §6

[4] = tested on: HL-60 human promyelocytic leukemia; assay: In vitro inhibition rate to tumor cells (MTT), HL-60; type: cell-based; conditions: 50 μg/ml
Protocol: as §1, §2, §3, §4, §5, §6

[5] = tested on: A-549 human lung adenocarcinoma; assay: In vitro inhibition rate to tumor cells (MTT), A-549; type: cell-based; conditions: 50 μg/ml
Protocol: as §1, §2, §3, §4, §5, §6

[6] = tested on: LLC mouse Lewis lung carcinoma; assay: In vitro inhibition rate to tumor cells (MTT), LLC; type: cell-based; conditions: 50 μg/ml
Protocol: as §1, §2, §3, §4, §5, §6

[7] = tested on: Hela human cervical carcinoma; assay: In vitro inhibition rate to tumor cells (MTT), Hela; type: cell-based; conditions: 50 μg/ml
Protocol: as §1, §2, §3, §4, §5, §6

[8] = tested on: SMMC-7721 human hepatic carcinoma; assay: In vitro inhibition rate to tumor cells (MTT), SMMC-7721; type: cell-based; conditions: 50 μg/ml
Protocol: as §1, §2, §3, §4, §5, §6

mouse lung cancer Lewis = assay: Activity against mouse grafted lung cancer Lewis; type: in vivo, Kunming mice; conditions: Lewis, 1 mg/kg; for Tumor weight: X ± SD, n = 10
Protocol: (§7) The experiments were performed according to “Guideline for New Drugs (Western medicines) in Pre-clinical Stages” issued by Bureau of Drug Policy & Administration of the People's Republic of China, and the relevant methods in “Methodology of Pharmaceutical Experiments”, Xu Shuyun et al. ed. 120 male Kunming mice weighting […] were allowed to grow 3 days. No abnormality was observed. The mice were routinely inoculated in oxter with mouse sarcoma S-180, and weighted 4 hrs. after inoculation. The mice were randomly divided into 12 groups, 10 mice/group. Group 1 was given 0.3 ml of physiological saline as negative control; Group 2 was given 5-FU as positive control, 0.6 mg/mouse; Group 3 was given hydroxycamptothecine as positive control, 0.02 mg/mouse. Groups 4, 5 and 6 were injected with 10% Compound 6, 0.4 ml/mouse, 0.2 ml/mouse, and 0.1 ml/mouse, respectively. Groups 7, 8 and 9 were injected with 10% Compound 8, 0.4 ml/mouse, 0.2 ml/mouse, and 0.1 ml/mouse, respectively. Groups 10, 11, and 12 were injected with 10% Compound 20, 0.4 ml/mouse, 0.2 ml/mouse, and 0.1 ml/mouse, respectively. The tested compounds were administered on the next day after inoculation, once a day on alternate days, 6 doses totally administered. On the next day after the end dose, the mice were weighed and sacrificed. After the tumor was excised, body weight and tumor weight were recorded. The tumor inhibition rate was calculated based on the following formula: [(average tumor weight of the control groups−average tumor weight of the experimental groups)/average tumor weight of the control groups]×100%. The data was processed statistically. The above experiments were repeated three times.
(§8) The experiments were identical with the experiments for activity against mouse grafted sarcoma S-180, except the following:
(1) the tumor cell line inoculated was mouse lung cancer Lewis;
(2) Compound 6, Compound 8 and Compound 21 were not tested for their activity;
(3) the mice were divided into six groups.

[9] = target: T1, HIV-1 proteinase (HIV-1 PR) (Human immunodeficiency virus type 1 group M subtype B, UniProt P04585); assay: Screening for in vitro activity against HIV-1 proteinase; type: biochemical; conditions: read-out: Inhibition rate, 10 nM
T1 construct: HIV-1 proteinase digests the fluorescent-labeled substrate; purchased
Protocol: Principle of the test: HIV-1 proteinase digests the fluorescent-labeled substrate in an optimal reaction condition and system. The activity of the enzyme can be reflected by the fluorescent intensity in the product of the enzyme reaction. Adding a sample into the reaction system can be used for screening the inhibitor of the enzyme.
1. HIV-1 PR: commercially available, stored at −85° C.
2. Treatment of the samples: Before use, sample was dissolved in DMSO at a suitable concentration, then serially diluted (5×) with double distilled water, five serial dilutions per sample.
3. Positive control: indinavir, purchased from […].
4. Methods: The diluted sample was added into the reaction buffer containing the fluorescent-labeled substrate. Then the genetic engineered target enzyme was added, and incubated in the optimal reaction condition. The fluorescent value was measured with a FLUO star Galaxy luminoscope.

[10] = tested on: mouse grafted uterine cervix cancer U14; assay: Activity against mouse grafted uterine cervix cancer U14; type: in vivo, Kunming mice; conditions: 1 mg/kg; for Tumor weight: X ± SD, n = 10
Protocol: as §7, §8
(1) the tumor cell line inoculated was mouse grafted uterine cervix cancer U14;
(2) all the mice were female.

[11] = tested on: mouse grafted liver cancer H22; assay: Activity against mouse grafted liver cancer H22; type: in vivo, Kunming mice; conditions: for Tumor weight: X ± SD, n = 10
Protocol: as §7
The experiments were identical with the experiments for activity against mouse grafted sarcoma S-180, except that the cell line inoculated was liver cancer H22. The experiments were repeated three times.

[12] = tested on: mouse grafted sarcoma S-180; assay: Activity against mouse grafted sarcoma S-180; type: in vivo, Kunming mice; conditions: 1 mg/kg i.v., 6 doses; for Tumor weight: X ± SD, n = 10
Protocol: (1) Experimental animals: Kunming mice weighting 18-22 g;
(2) 100 mg/ml solutions of the 3 compounds were prepared, respectively, in water for injection (1% surface surfactant was added into the solution of Compound 6). 5-FU and camptothecine, 30 mg/kg and 1 mg/kg, respectively, were used as positive controls;
3. Route of Administration: Intravenous Injection.
as §7

[13] = H22, first experiment, 1 mg/kg i.v., 6 doses
[14] = H22, second experiment, 1 mg/kg

## C=C1CC2(OC(=O)c3ccccc3)OC3(CC2C(C)C)C(C)CCC13 (stereo not drawn) [Compound 4, Curcumol benzoate]
[1]; Table 1
  inhibition rate, Results (%) U-937: 52.23%
[1]; Table 2 (repeated screening)
  inhibition rate, Results (%) U-937: 51.00%
293 cells
  Cytopathy and cell status, Sample: Good
[2]; Table 1
  inhibition rate, Results (%) Bel-7402: 43.21%
[2]; Table 2 (repeated screening)
  inhibition rate, Results (%) Bel-7402: 43.02%
[3]; Table 1
  inhibition rate, Results (%) MCF-7: 49.23%
[3]; Table 2 (repeated screening)
  inhibition rate, Results (%) MCF-7: 50.09%
[4]; Table 1
  inhibition rate, Results (%) HL-60: 42.1%
[4]; Table 2 (repeated screening)
  inhibition rate, Results (%) HL-60: 40.01%
[5]; Table 1
  inhibition rate, Results (%) A-549: 10.51%
[5]; Table 2 (repeated screening)
  inhibition rate, Results (%) A-549: 14.03%
[6]; Table 1
  inhibition rate, Results (%) LLC: 1.01%
[6]; Table 2 (repeated screening)
  inhibition rate, Results (%) LLC: 0.23%
[7]; Table 1
  inhibition rate, Results (%) Hela: 73.22%
[7]; Table 2 (repeated screening)
  inhibition rate, Results (%) Hela: 70.12%
[8]; Table 1
  inhibition rate, Results (%) SMMC-7721: 5.30%
[8]; Table 2 (repeated screening)
  inhibition rate, Results (%) SMMC-7721: 1.96%

## CC(C)C1CC23OC1(O)CC(=CO[N+](=O)[O-])C2CCC3C (stereo not drawn) [Compound 19, Curcumol mononitrate]
[1]; Table 1
  inhibition rate, Results (%) U-937: 50.97%
[1]; Table 2 (repeated screening)
  inhibition rate, Results (%) U-937: 42.23%
293 cells
  Cytopathy and cell status, Sample: Apoptotic
[2]; Table 1
  inhibition rate, Results (%) Bel-7402: 4.32%
[2]; Table 2 (repeated screening)
  inhibition rate, Results (%) Bel-7402: 8.95%
[3]; Table 1
  inhibition rate, Results (%) MCF-7: 12.6%
[3]; Table 2 (repeated screening)
  inhibition rate, Results (%) MCF-7: 0.16%
[4]; Table 1
  inhibition rate, Results (%) HL-60: 54.03%
[4]; Table 2 (repeated screening)
  inhibition rate, Results (%) HL-60: 55.98%
[5]; Table 1
  inhibition rate, Results (%) A-549: 2.51%
[5]; Table 2 (repeated screening)
  inhibition rate, Results (%) A-549: 3.10%
[6]; Table 1
  inhibition rate, Results (%) LLC: −15.52%
[6]; Table 2 (repeated screening)
  inhibition rate, Results (%) LLC: −16.00%
[7]; Table 1
  inhibition rate, Results (%) Hela: 55.67%
[7]; Table 2 (repeated screening)
  inhibition rate, Results (%) Hela: 50.27%
[8]; Table 1
  inhibition rate, Results (%) SMMC-7721: 23.01%
[8]; Table 2 (repeated screening)
  inhibition rate, Results (%) SMMC-7721: 12.301%

## CC(=O)OC12CC(=O)C3CCC(C)C3(CC1C(C)C)O2 (stereo not drawn) [Compound 49, Curzerenone acetate]
[1]; Table 1
  inhibition rate, Results (%) U-937: 78.65%
[1]; Table 2 (repeated screening)
  inhibition rate, Results (%) U-937: 75.23%
[2]; Table 1
  inhibition rate, Results (%) Bel-7402: 2.69%
[2]; Table 2 (repeated screening)
  inhibition rate, Results (%) Bel-7402: 14.02%
[3]; Table 1
  inhibition rate, Results (%) MCF-7: 0.65%
[3]; Table 2 (repeated screening)
  inhibition rate, Results (%) MCF-7: 1.56%
[4]; Table 1
  inhibition rate, Results (%) HL-60: 55.35%
[4]; Table 2 (repeated screening)
  inhibition rate, Results (%) HL-60: 57.89%
[5]; Table 1
  inhibition rate, Results (%) A-549: 5.36%
[5]; Table 2 (repeated screening)
  inhibition rate, Results (%) A-549: 4.23%
[6]; Table 1
  inhibition rate, Results (%) LLC: −0.15%
[6]; Table 2 (repeated screening)
  inhibition rate, Results (%) LLC: 0.12%
[7]; Table 1
  inhibition rate, Results (%) Hela: 79.8%
[7]; Table 2 (repeated screening)
  inhibition rate, Results (%) Hela: 75.65%
[8]; Table 1
  inhibition rate, Results (%) SMMC-7721: −11.3%
[8]; Table 2 (repeated screening)
  inhibition rate, Results (%) SMMC-7721: −1.78%

## CC[C@@]1(O)C(=O)OCc2c1cc1n(c2=O)Cc2cc3cc(O)ccc3nc2-1 [Hydioxycamptothecine]
Mouse lung cancer Lewis; first experiment
  Average weight (g)-after administration: 21.0 g
  Inhibition rate (%): 49.7%
  Tumor weight: 1.50 ± 0.28 g

## CC(C)(C)NC(=O)[C@@H]1CN(Cc2cccnc2)CCN1C[C@@H](O)C[C@@H](Cc1ccccc1)C(=O)N[C@H]1c2ccccc2C[C@H]1O [indinavir]
[9]
  inhibition at 0.01 µM: 92.1%

## hydroxycamptothecine [reference compound]
[10]; U14, first experiment
  Average weight(g)-after administration: 22.2 g
  Inhibition rate (%): 45.8%
  Tumor weight: 1.90 ± 0.28 g
[10]; U14, second experiment
  Average weight(g)-after administration: 22.3 g
  Inhibition rate (%): 46.5%
  Tumor weight: 1.82 ± 0.28 g
[10]; U14, third experiment
  Average weight (g)-after administration: 21.3 g
  Inhibition rate (%): 45.6%
  Tumor weight: 1.96 ± 0.28 g
Mouse lung cancer Lewis; second experiment
  Average weight (g)-after administration: 21.0 g
  Inhibition rate (%): 50.2%
  Tumor weight: 1.20 ± 0.28 g
Mouse lung cancer Lewis; third experiment
  Average weight (g)-after administration: 21.5 g
  Inhibition rate (%): 51.9%
  Tumor weight: 1.30 ± 0.28 g
[11]; [13]
  Average weight(g)-after administration: 20.5 g
  Inhibition rate (%): 63.9%
  Tumor weight: 1.12 ± 0.28 g
[11]; [14]
  Average weight(g)-after administration: 20.2 g
  Inhibition rate (%): 66.9%
  Tumor weight: 1.00 ± 0.28 g
[11]; H22, third experiment, 1 mg/kg
  Average weight (g)-after administration: 22.2 g
  Inhibition rate (%): 65.3%
  Tumor weight: 1.05 ± 0.28 g
[12]; S-180, first experiment
  Average weight (g)-after administration: 20.8 g
  Inhibition rate (%): 65.2%
  Tumor weight: 0.87 ± 0.28 g
[12]; S-180, second experiment
  Average weight(g)-after administration: 20.8 g
  Inhibition rate (%): 64.6%
  Tumor weight: 0.92 ± 0.38 g
